From patent US5571844A, “Amidinophenylalanine derivatives, a process for their preparation, their use and compositions containing these as anticoagulants” (Behringwerke Aktiengesellschaft, priority 1993, dated 1996)

Experiments:
human thrombin = human thrombin (Homo sapiens, UniProt P00734); experiment: Determination of the inhibition constants (Ki) for thrombin; assay type: biochemical; conditions: human thrombin 100 pM, substrate S2238, pH 7.8, 37 degrees C., 60 min preincubation
Protocol: (§1) The inhibitors according to the invention have been tested according to various criteria to assess their efficacy, these preferably being the determination of the Ki value, of the IC50 value and of the partial thrombo-plastin time (PTT) in vivo and in vitro. To test the specificity, the IC50 values and Ki values with respect to various serine proteases, especially thrombin and trypsin, were measured. The stability of the substances according to the invention was determined by incubating a sample of the substance with a pure enzyme, preferably trypsin, chymotrypsin or papain, and with liver or intestinal homogenates, taking samples from the solutions at intervals of time, and preferably measuring by HPLC.
The inhibition constants (Ki) for the substances were determined by known enzyme kinetic methods. The human thrombin employed was determined to be 87% pure by means of active site titration. […] The inhibitor and enzyme were preincubated for 60 minutes, and the reaction was started by addition of the chromogenic substrate S2238. The kinetics were analyzed using the mathematical algorithm for tight binding, which with the aid of non-linear regression yielded Ki values (table) and the type of inhibition.

trypsin = target: T1, trypsin (Bos taurus, UniProt P00760); experiment: Ki with respect to trypsin (specificity of the inhibitors); assay type: biochemical
T1 sequence (P00760 24-246): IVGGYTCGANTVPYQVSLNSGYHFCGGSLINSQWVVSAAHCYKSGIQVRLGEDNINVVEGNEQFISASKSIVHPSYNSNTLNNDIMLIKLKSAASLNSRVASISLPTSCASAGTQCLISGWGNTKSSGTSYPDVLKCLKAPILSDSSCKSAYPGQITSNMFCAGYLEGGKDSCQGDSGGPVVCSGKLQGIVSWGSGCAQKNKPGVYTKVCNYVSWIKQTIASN
Protocol: as §1
The specificity of the inhibitors was determined with thrombin and trypsin. The specificity is defined as the ratio of the Ki values for trypsin and thrombin (table).

[1] = Determination of the elimination half-lives t1/2 β, intravenous, rats; assay type: in vivo; conditions: rat, i.v., 5 mg/kg, plasma, calculated, second phase
Protocol: Determination of the Elimination Half-lives t1/2 β The thrombin inhibitors (2)-(5) in the table were administered intravenously to rats (5 in each group) at a dosage of 5 mg/kg. Blood samples were taken, and the time-dependent concentrations of thrombin inhibitors in the plasma were determined. Elimination takes place in two phases. The calculated elimination half-lives t1/2 β are compiled in it.

[2] = Determination of the subcutaneous absorption of substances (2) and (5), rabbits; assay type: in vivo; conditions: 2 mg/kg
Protocol: The substances were administered to rabbits subcutaneously in a dosage of 2 mg/kg. The maximum plasma concentration of (5) was reached after 5 minutes. The maximum plasma concentration of (2) was reached after 80 minutes.

Work on COc1cc(C)c(S(=O)(=O)N[C@@H](CC(=O)O)C(=O)N[C@H](Cc2ccc(C(=N)N)cc2)C(=O)N2CCCCC2)c(C)c1C [(5)] yielded a Ki (human thrombin) of 2.5 nM, a Ki (trypsin) of 312 nM and a half-life [1] of 19 min. For the same compound, the Tmax ([2]; rabbit, plasma, sc, read-out: time to maximum plasma concentration (converted)) was 5 min and the “duration of effective plasma level” value ([2]; s.c.) was 3 h.
